What was measured:
GSK-3β [1] = target: T1, GSK-3β (Homo sapiens, UniProt P49841); experiment: biochemical; set-up: Kinase-Glo luminescent ATP-consumption assay, human recombinant GSK-3beta, GSM peptide substrate, 1 uM ATP, 30 min 37 C
T1 construct: gene GSK3B
Description: GSK-3β activity and inhibition were studied according to the luminescent method of Baki et al. using a Kinase-Glo reagent kit. The reaction was performed in 96-well white plates. Each well contained 10 µL of test compound (dissolved in DMSO) at 1 mM concentration and diluted in advance in an assay buffer (pH 7.5) containing 50 mM HEPES, 1 mM EDTA, 1 mM EGTA, and 15 mM magnesium acetate, to the desired concentration, 10 µL of ATP (1 µM final concentration), 10 µL of 100 µM GSM and 10 µL of GSK-3β (20 ng). Ten microliters of either buffer or SB-415286 solution (5 µM final concentration) was added instead of test compound solution in order to obtain the positive (maximum activity) and negative control (total inhibition), respectively. […] The mix was left to react at 37 °C for 30 min. Then the enzymatic reactions were stopped with 40 µL of Kinase-Glo reagent. Glow-type luminescence was recorded after 10 min. The activity is proportional to the difference of the total and consumed ATP. The inhibition activities were calculated on the basis of maximal activity, measured in the absence of inhibitor, and the maximal inhibition was measured in the presence of the reference compound. The IC50 values were calculated using the GraphPad Prism 4.0 program (GraphPad Software Inc., CA, USA). Kinase-Glo Kit was obtained from Promega (Promega Biotech Iberica, S.L., Madrid, Spain), and human recombinant GSK-3β and GSM substrate mimicking Glycogen Muscle Synthase from Merck Millipore (Darmstadt, Germany). Adenosine 5-triphosphate (ATP) disodium salt hydrate, ammonium acetate, ammonium hydroxide, 4-(2-hydroxyethyl)piperazine-1-ethanesulfonic acid (HEPES), ethylene glycol-bis(-aminoethylether)-N,N,N,N-tetraacetic acid tetrasodium salt (EGTA), ethylenediaminetetraacetic acid (EDTA), dimethyl sulfoxide (DMSO), magnesium acetate tetrahydrate, formic acid, and 3-[(3-chloro-4-hydroxyphenyl)amino]-4-(2-nitrophenyl)-1H-pyrrol-2,5-dione were purchased from Sigma-Aldrich (St. Louis, MO, USA). The GSK-3β selective inhibitor SB-415286 ([3-(3-chloro-4-hydroxyphenylamino)-4-(2-nitrophenyl)-1H-pyrrole-2,5-dione]) was purchased from Selleck Chemicals (Houston, TX, USA). Ultrapure water was obtained using a Purite LTD water purification system (Thame, UK). The experiments were carried out using a Victor X3 multimode plate reader (Perkin Elmer, MA, USA). The inhibitory activity of the compounds was first screened at a concentration of 50 µM (Table 1); a synthetic arylindolemaleimide derivative, SB-415286, was used as a positive standard.

GSK-3β [2] = target: T1, GSK-3β; experiment: Kinase-Glo luminescent kinase assay, single concentration […]; type: biochemical; details: read-out: % of Inhibition
GSK-3β [3] = target: T1, GSK-3β; experiment: biochemical

T1 sequence (P49841 whole entry): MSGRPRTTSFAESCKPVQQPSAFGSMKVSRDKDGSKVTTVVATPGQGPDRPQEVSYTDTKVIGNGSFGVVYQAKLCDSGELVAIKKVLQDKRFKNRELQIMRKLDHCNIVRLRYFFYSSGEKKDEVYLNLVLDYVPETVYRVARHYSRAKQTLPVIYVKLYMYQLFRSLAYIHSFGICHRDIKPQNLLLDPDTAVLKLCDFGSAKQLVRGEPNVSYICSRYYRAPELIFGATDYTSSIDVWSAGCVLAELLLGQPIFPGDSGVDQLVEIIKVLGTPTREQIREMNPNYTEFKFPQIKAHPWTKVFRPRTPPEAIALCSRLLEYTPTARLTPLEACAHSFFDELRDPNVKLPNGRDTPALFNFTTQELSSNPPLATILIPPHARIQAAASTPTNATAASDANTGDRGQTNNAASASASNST

Structure (SMILES)	inhibition at 50 µM (GSK-3β [1]) [%]	inhibition at 50 µM (GSK-3β [2]) [%]	IC50 (GSK-3β [3]) [µM]
CC(=O)O[C@H]1[C@H]2c3cc4c(cc3CN3CCC(=C[C@@H]1O)[C@H]23)OCO4 [1-O-Acetyllycorine (16)]	49.9 ± 1.9		
COc1c2c(cc3c1OCO3)[C@]13C=C[C@H](OC)C[C@H]1N(C2)C[C@@H]3O [Ambelline (7)]	38 ± 0.8		
COc1c2c(cc3c1OCO3)[C@@]13CCN(C2)[C@@H]1C[C@@H](O)[C@@H]1O[C@@H]13 [Crinamidine (10)]	32.1 ± 7.9		
O[C@H]1C=C[C@@]23CCN(Cc4cc5c(cc42)OCO5)[C@@H]3C1 [Crinine (8)]	39.6 ± 5.4		
COc1cc2c(cc1OC)[C@@H]1[C@H](O)[C@@H](OC)C=C3CCN(C2)[C@H]31 [Galanthine (17)]	26.4 ± 7.7		
CO[C@@H]1C=C[C@@]23c4cc5c(cc4[C@H](O)N(C[C@@H]2O)[C@H]3C1)OCO5 [Haemanthidine (4)]	33 ± 2.2		
O[C@H]1C=C[C@@]23c4cc5c(cc4CN(C[C@@H]2O)[C@H]3C1)OCO5 [Hamayne (5)]	33.9 ± 0.1		
CN1CCC2=C[C@H](O)[C@H]3OC(=O)c4cc5c(cc4[C@H]3[C@@H]21)OCO5 [Hippeastrine (21)]	10.7 ± 2.5		
COc1cc2c(cc1OC)[C@@H](O)O[C@@H]1CC=C3CCN(C)[C@H]3[C@H]21 [Lycorenine (25)]	47.6 ± 3.5		
O[C@H]1[C@H]2c3cc4c(cc3CN3CCC(=C[C@@H]1O)[C@H]23)OCO4 [Lycorine (15)]	32.9 ± 0.2		
COc1ccc2c3c1O[C@H]1CC(=O)C=C[C@@]31CCN(C)C2 [Narwedine (12)]	37.7 ± 0.3		
COc1cc2c(cc1O)CN1CCC3=CC[C@@H](O)[C@@H]2[C@@H]31 [Norpluviine (19)]	45 ± 4.3		
CO[C@@H]1C=C[C@@]23c4cc5c(cc4CO[C@]2(O)CN(C)[C@H]3C1)OCO5 [Tazettine (20)]	49.2 ± 0.3		
COc1c2c(cc3c1OCO3)[C@@]13CCN(C2)[C@@H]1C[C@@H](OC)[C@@H]1O[C@@H]13 [Undulatine (9)]	43.3 ± 4		
CO[C@@H]1C=C[C@@]23c4cc5c(cc4CN(C[C@@H]2O)[C@H]3C1)OCO5 [compound 3, Haemanthamine]		52.4	
O[C@@H]1CC=C2CCN3Cc4cc5c(cc4[C@H]1[C@@H]23)OCO5 [compound 14, Caranine]	61.8 ± 9.2		30.8
COc1cc2c(cc1OC)[C@H]1[C@H]3C(=CC[C@H]1OC2=O)CCN3C [compound 22, Homolycorine]		54.4	
COc1cc2c(cc1O)C1C(CC=C3CCN(C)C31)OC2=O (stereo not drawn) [compound 23, 9-O-Demethylhomolycorine]	63.6 ± 1.3		30
CN1CCC2=CCC3OC(=O)c4cc5c(cc4C3C21)OCO5 (stereo not drawn) [compound 24, Masonine]	66 ± 4		27.8
CCOC1OC2CC=C3CCN(C)C3C2c2cc(OC)c(OC)cc21 (stereo not drawn) [compound 26, O-Ethyllycorenine]		57.7	
CN1CCC2=CCC3OC(O)c4cc5c(cc4C3C21)OCO5 (stereo not drawn) [compound 27, Oduline]		57.7	

Source: PMC6017564, “Amaryllidaceae Alkaloids as Potential Glycogen Synthase Kinase-3β Inhibitors” (Molecules : A Journal of Synthetic Chemistry and Natural …, 2018)
